Assay results from US12226393B2, “Neuroprotective compounds for amyotrophic lateral sclerosis” (THE JOHNS HOPKINS UNIVERSITY, priority 2019, dated 2025).
“Also recorded” adds a separate entry of the source. Where two headings read alike, the source gives them in different places.

Legend:
[1] = tested on: control hiPSC-A/-MN co-cultures; test: Multielectrode array (MEA) recording of control hiPSC-A/-MN co-cultures; format: cell-based, human; conditions: for hiPSC-Neuron spike activity: co-cultured 1 week
Source text: (§1) Multi-electrode array culture and recordings: Multi-electrode array (MEA) plates (MultiChannel Systems, 60MEA200/30iR-Ti-gr,) with 60 electrodes, including 59 active and 1 reference, and a MEA2100 (MultiChannel Systems) platform were used for the recording of neuronal activity in hiPSC-A/-MN co-cultures as we have previously described^50. Briefly, hiPSC-A from healthy subjects and ALS patients and hiPSC-MN from a single control line were serially co-cultured at densities of 100,000 cells/plate and 500,000 cells/plate, respectively. We analyzed the following electrophysiological parameters: spike rate, burst rate, and percentage of spiking and bursting electrodes (on the overall 59 recording electrodes). The recording of the baseline activity of MEA plates was performed every 3 days over 1-minute period for 2 weeks after initial plating. For pharmacological assays, we performed 5 minutes recordings to capture slower electrophysiological effects of HC blockers 36: baseline MEA activity for 1 minute, activity for 1 minute after 100 μl medium exchange with drug vehicle, and activity for 3 minutes after the exchange of 100 μl of medium containing the compound of interest and the drug vehicle. For analysis purposes, we considered only the electrodes with spike rate >0. Spiking and bursting activity is expressed as the mean of individual MEA plates.

[2] = tested on: ALS hiPSC-A / control hiPSC-MN co-cultures; test: MEA recording of ALS hiPSC-A co-cultured with control hiPSC-MN; format: cell-based, human; conditions: for ALS astrocyte-mediated hyperexcitability (neuronal spiking and bursting activity): 10 μM, within 5 minutes
Source text: as §1

[3] = tested on: hiPSC-MN alone; test: MEA recording of hiPSC-MN alone in culture; format: cell-based, human; conditions: 10 μM
[4] = tested on: FALS and SALS hiPSC-A/MN co-culture; test: hiPSC-astrocyte / hiPSC-motor neuron direct co-culture, neuron survival by immunostaining; format: cell-based, human; conditions: for neuroprotection of control hiPSC-MN in co-culture with ALS hiPSC-A: 3 days
Experimental: (§2) Human iPSC-astrocyte and hiPSC-motor neuron co-culture: Human iPSC-A form healthy subjects and ALS patients were cultured for 86 DIV and then plated in 24 well plates on glass cover-slips at a density of 20,000 cells/well. Four days later, hiPSC-MN from control samples, cultured for 60 DIV prior to use, were plated on the top of astrocytes at a density of 50,000 cells/well. This was considered day 1 of co-culture. Co-cultures were maintained in motor neuronal medium enriched with 1% FBS for a total of 14 days before fixing for immunocytochemistry. Co-culture medium was changed every third day with half medium exchange. For pharmacological assays on Cx43 HC, we used GAP19 (Tocris, 53533) at a concentration of 340 μM^21,50 and tonabersat (SB-220453) at concentrations of 1 μM, 10 μM and 100 μM^7,8 (Millipore Sigma, SML1354).

[5] = tested on: transwell co-culture of FALS and SALS hiPSC-A with hiPSC-MN; test: hiPSC-astrocyte / hiPSC-motor neuron transwell co-culture, neuron survival by immunostaining; format: cell-based, human
Experimental: Human iPSC-astrocyte and hiPSC-motor neuron co-culture in a transwell system: Human iPSC-MN from control samples were cultured for 56 DIV and then plated in 12 well plates on glass coverslips at a density of 250,000 cells/well. […] Four days later, the inserts with 90 DIV astrocytes were placed on the top of 12-well plates with 60 DIV motor neurons at the bottom. This was considered day 1 of “transwell” co-cultures. Half medium exchanges were performed from both the top and the bottom compartments. Transwell co-culture were otherwise maintained as conventional co-cultures and neurons on glass coverslips were fixed for immunocytochemistry after 14 days.

[6] = tested on: control hiPSC-MN; test: Survival of control hiPSC-MN alone or co-cultured with control hiPSC-A; format: cell-based, human; conditions: several concentrations; hiPSC-MN alone or in co-culture with control hiPSC-A
Experimental: Human iPSC-motor neuron culture: Briefly, NPC differentiated with the aforementioned spinal cord patterning protocol were cultured for up to 60 DIV with “neuronal differentiating medium”^58,59. To prevent astrocyte overproliferation, neuronal cultures were treated once with 0.02 μM cytosine arabinoside (Ara-C) (Millipore Sigma) for 48 h. While the majority of these cells are Tuj1+/ChAT+, consistent with a spinal motor neuronal phenotype, a smaller subset of neurons (Tuj1+/ChAT−) is also present and consists mainly of GABAergic interneurons^58.
as §2

[7] = target: Cx43 HC (Homo sapiens, UniProt P17302); conditions: cited from earlier work
[8] = cited from earlier work; for tolerability / safety: humans, phase II clinical trials
[9] = in vivo; cited from earlier work
[10] = in vivo, cited from earlier work
[11] = target: T1, connexin 43 (Cx43) gap junctions (Homo sapiens, UniProt P17302); conditions: cited from earlier work
T1 construct: host or cells: astrocyte cancer cell co-cultures

[12] = tested on: brain metastases; conditions: xenograft and immunocompetent models; cited from earlier work
[13] = in vivo studies; cited from earlier work
[14] = tested on: rodent SOD1^G93A astrocyte-induced toxicity; test: ALS astrocyte-induced MN toxicity, rodent model of ALS; format: cell-based
[15] = tested on: gap junction channels; conditions: cited from earlier work

T1 sequence (P17302 2-382 limits assumed, species assumed): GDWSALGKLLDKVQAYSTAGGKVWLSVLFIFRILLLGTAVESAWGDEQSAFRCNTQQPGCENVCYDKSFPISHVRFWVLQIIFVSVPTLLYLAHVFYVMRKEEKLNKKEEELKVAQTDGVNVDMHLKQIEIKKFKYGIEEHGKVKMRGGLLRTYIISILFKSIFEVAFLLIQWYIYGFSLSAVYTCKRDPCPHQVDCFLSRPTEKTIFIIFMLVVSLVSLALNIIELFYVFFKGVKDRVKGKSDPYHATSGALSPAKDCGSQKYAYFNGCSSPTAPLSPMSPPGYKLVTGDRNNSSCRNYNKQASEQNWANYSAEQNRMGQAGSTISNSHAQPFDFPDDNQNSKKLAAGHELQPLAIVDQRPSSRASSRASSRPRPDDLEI
Chain of Cx43 HC (P17302 2-382 limits assumed): as the sequence (P17302 2-382 limits assumed, species assumed) above

Which “neuronal spiking and bursting activity” value ([1]; 1 μM, 5 minutes after application, compared with 10 μM) does the source give for CC(=O)c1ccc2c(c1)[C@H](NC(=O)c1ccc(F)c(Cl)c1)[C@H](O)C(C)(C)O2 [tonabersat, N-[(3S,4S)-6-acetyl-3-hydroxy-2,2-dimethyl-3,4-dihydro-2H-1-benzopyran-4-yl]-3-chloro-4-fluorobenzamide] here?
The value was “less effective”.

What about the hiPSC-Neuron spike activity ([1]; 10 μM, 1 minute after application) of the same compound?
Its hiPSC-Neuron spike activity is “reduction of hiPSC-Neuron spike activity”.

And the “neuronal spiking and bursting activity” value ([1]; 10 μM, within 5 minutes of application)?
The value was “significantly reduced neuronal spiking and bursting activity”.

What about the hiPSC-Neuron spike activity ([1]; 100 μM, 1 minute after application) of the same compound?
The hiPSC-Neuron spike activity was “reduction of hiPSC-Neuron spike activity”.

And the “hiPSC-Neuron spike rate, burst rate, number of electrodes firing and bursting” value ([1]; hiPSC-Astro/Neuron co-culture)?
The value was “reduced hiPSC-Neuron spike rate, burst rate, number of electrodes firing and bursting”.

What about the hiPSC-Neuron firing ([1]; hiPSC-Astro/Neuron co-culture, 1 and 5 minutes after application) of the same compound?
The hiPSC-Neuron firing was “reduced hiPSC-Neuron firing”.

And the “levels of spiking and bursting activity after treatment versus untreated control co-cultures” value ([2]; 10 μM acute treatment, day 6 of co-culture)?
Its value is “not significantly different”.

And the “ALS astrocyte-mediated hyperexcitability (neuronal spiking and bursting activity)” value ([2]; day 6 of co-culture)?
The value was “significantly reduced”.

And the “ALS astrocyte-mediated hyperexcitability (neuronal spiking and bursting activity)” value ([2]; day 6 of co-culture, listed as Tonabersat)?
Its value is “significant inhibition”.

What about the “concentration necessary to reduce ALS hiPSC-astrocyte mediated neuron spike activity” value ([2]; MEA, co-cultured 1 week, 1 minute after application) of the same compound?
Its value is 100 µM.

And the neuronal electrophysiological activity [3]?
The neuronal electrophysiological activity was “did not observe any change in neuronal electrophysiological activity; also recorded: does not result in an alteration of electrophysiological activity”.

And the “rescue of ChAT MNs” value ([4]; 1 μM, direct co-culture, 14 days)?
Its value is “rescues ChAT MNs”.

And the “neuroprotection of control hiPSC-MN in co-culture with ALS hiPSC-A” value ([4]; 10 μM, early (day 5 to day 8 of co-culture))?
Its value is “neuroprotection of control hiPSC-MN; also recorded: Significant neuroprotection”.

What about the “neuroprotection of control hiPSC-MN in co-culture with ALS hiPSC-A” value ([4]; 10 μM, late (day 11 to day 14 of co-culture)) of the same compound?
The value was “This protection did not occur; also recorded: Significant neuroprotection was appreciated after early but not late exposure”.

And the “rescue of ChAT MNs” value ([4]; 10 μM, direct co-culture, 14 days)?
The value was “rescues ChAT MNs”.

And the “neuroprotection of hiPSC-MN” value ([4]; 100 μM, direct co-culture, 14 days)?
Its value is “not neuroprotective”.

And the “protection of non-MN populations (ChAT− and Isl1− neurons)” value ([4]; direct co-culture with FALS and SALS hiPSC-A)?
The value was “protective to non-MN populations; also recorded: can be rescued with tonabersat”.

What about the “neuroprotection of hiPSC-MN (ChAT, Isl-1) from ALS astrocyte-mediated death” value ([4]; direct co-culture, 1 μM, 10 μM and 100 μM, 14 day incubation) of the same compound?
Its value is “can protect MNs from ALS astrocyte-induced excitotoxicity; also recorded: protects hiPSC-MN from ALS astrocyte-mediated death in a dose-dependent manner; also recorded: dose-dependent neuroprotection”.

What about the “neuroprotection of hiPSC-MN (ChAT+, Isl1+)” value ([5]; transwell co-culture, 14 days) of the same compound?
The value was “neuroprotective effect of tonabersat was also seen; also recorded: confirms dose-dependent neuroprotection”.

What about the “rescue of non-motor neuron cell death” value ([5]; transwell culture with FALS and SALS hiPSC-A) of the same compound?
Its value is “can be rescued with tonabersat”.

What about the “hiPSC-MN survival (ChAT+ and Isl1+)” value [6] of the same compound?
The value was “did not have any effect on hiPSC-MN survival; also recorded: no effect on ChAT+ and Isl1+ control hiPSC-MN survival”.

What about the “concentrations that specifically block Cx43 HC” value ([7]; low concentrations) of the same compound?
The value was 1 to 10 µM.

What about the tolerability / safety [8] of the same compound?
The tolerability / safety was “well tolerated and safe”.

What about the tolerability / safety ([8]; listed as Tonabersat) of the same compound?
The tolerability / safety was “excellent safety profile”.

And the “effect on attacks of migraine aura” value ([8]; study by Hauge and colleagues)?
Its value is “preventive effect”.

And the “efficacy on non-aura attacks” value ([8]; study by Hauge and colleagues)?
The value was “no efficacy”.

And the “neurogenic extravasation of plasma protein in the meninges” value [9]?
Its value is “reduce neurogenic extravasation of plasma protein in the meninges”.

What about the cortical spreading depression [10] of the same compound?
Its cortical spreading depression is “inhibitory effects on cortical spreading depression”.

And the cortical spreading depression ([10]; listed as Tonabersat)?
The cortical spreading depression was “antagonize cortical spreading depression”.

What about the “release of IFNα and TNF” value ([11]; astrocyte cancer cell co-cultures) of the same compound?
The value was “inhibited”.

What about the “dye transfer from astrocytes to cancer cells” value [11] of the same compound?
Its value is “inhibited dye transfer from astrocytes to cancer cells”.

And the brain metastases [12]?
The brain metastases was “inhibited brain metastases”.

What about the seizures [13] of the same compound?
The seizures was “inhibitory effects”.

For “KQIEIKKFK [Gap19, nonapeptide derived from the cytoplasmic loop of Cx43]”, which neuronal firing ([1]; hiPSC-Astro/Neuron co-culture, 1 minute after application) is on record?
Its neuronal firing is “reduced neuronal firing”.

What about the “neuroprotection against ALS astrocyte-induced MN toxicity” value [14] of the same compound?
Its value is “can be neuroprotective”.

And the “inhibition of astroglial Cx43 hemichannels” value [7]?
Its value is “inhibits astroglial Cx43 hemichannels in a dose-dependent manner”.

And the “effect on gap junction channels” value [15]?
Its value is “without affecting gap junction channels”.
